Data as given in the supplement of paper PMC10307832.

Tests used:
Test in all cases: relative viability (nuclei count vs DMSO), 5 days (fraction); higher = more cells survive
Doramapimod + Foretinib = compound: Cc1ccc(-n2nc(C(C)(C)C)cc2NC(=O)Nc2ccc(OCCN3CCOCC3)c3ccccc23)cc1 [Doramapimod] + COc1cc2c(Oc3ccc(NC(=O)C4(C(=O)Nc5ccc(F)cc5)CC4)cc3F)ccnc2cc1OCCCN1CCOCC1 [Foretinib] (partner 0.25 µM)
How it was run: (§1)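 Values are medians from duplicate plates. Each reflects relative viability, defined as the nuclei count of treated wells over that of vehicle wells. Lung cancer cell lines in 1536-well plates were pin-tool dosed one day after seeding with one drug alone or with a fixed anchor-drug dose plus five library-drug doses (not always all listed) in √10 steps, then fixed, stained and imaged at 4× after 5 days.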

Doramapimod + Pemetrexed = compound: Cc1ccc(-n2nc(C(C)(C)C)cc2NC(=O)Nc2ccc(OCCN3CCOCC3)c3ccccc23)cc1 [Doramapimod] + Nc1nc2[nH]cc(CCc3ccc(C(=O)N[C@@H](CCC(=O)O)C(=O)O)cc3)c2c(=O)[nH]1 [Pemetrexed] (partner 0.2 µM)
How it was run: as §1

RAF265 + Dasatinib = compound: Cn1c(Nc2ccc(C(F)(F)F)cc2)nc2cc(Oc3ccnc(-c4ncc(C(F)(F)F)[nH]4)c3)ccc21 [RAF265] + Cc1nc(Nc2ncc(C(=O)Nc3c(C)cccc3Cl)s2)cc(N2CCN(CCO)CC2)n1 [Dasatinib] (partner 0.075 µM)
How it was run: as §1

RAF265 + Pemetrexed = compound: Cn1c(Nc2ccc(C(F)(F)F)cc2)nc2cc(Oc3ccnc(-c4ncc(C(F)(F)F)[nH]4)c3)ccc21 [RAF265] + Nc1nc2[nH]cc(CCc3ccc(C(=O)N[C@@H](CCC(=O)O)C(=O)O)cc3)c2c(=O)[nH]1 [Pemetrexed] (partner 0.2 µM)
How it was run: as §1

## NCI-H2087
Doramapimod + Foretinib; first compound 0.02 µM
  relative viability: 0.996
Doramapimod + Foretinib; first compound 0.06325 µM
  relative viability: 1.14
Doramapimod + Foretinib; first compound 0.2 µM
  relative viability: 0.993
Doramapimod + Foretinib; first compound 0.6325 µM
  relative viability: 1.18
Doramapimod + Foretinib; first compound 2 µM
  relative viability: 1.24
Doramapimod + Pemetrexed; first compound 0.02 µM
  relative viability: 0.589
Doramapimod + Pemetrexed; first compound 0.06325 µM
  relative viability: 0.646
Doramapimod + Pemetrexed; first compound 0.2 µM
  relative viability: 0.597
Doramapimod + Pemetrexed; first compound 0.6325 µM
  relative viability: 0.573
Doramapimod + Pemetrexed; first compound 2 µM
  relative viability: 0.61
RAF265 + Dasatinib; first compound 0.01 µM
  relative viability: 0.743
RAF265 + Dasatinib; first compound 0.03162 µM
  relative viability: 0.76
RAF265 + Dasatinib; first compound 0.1 µM
  relative viability: 0.6
RAF265 + Dasatinib; first compound 0.3162 µM
  relative viability: 0.639
RAF265 + Dasatinib; first compound 1 µM
  relative viability: 0.383
RAF265 + Pemetrexed; first compound 0.01 µM
  relative viability: 0.599
RAF265 + Pemetrexed; first compound 0.03162 µM
  relative viability: 0.669
RAF265 + Pemetrexed; first compound 0.1 µM
  relative viability: 0.549
RAF265 + Pemetrexed; first compound 0.3162 µM
  relative viability: 0.649
RAF265 + Pemetrexed; first compound 1 µM
  relative viability: 0.543

## NCI-H2126
Doramapimod + Foretinib; first compound 0.02 µM
  relative viability: 1.21
Doramapimod + Foretinib; first compound 0.06325 µM
  relative viability: 0.988
Doramapimod + Foretinib; first compound 0.2 µM
  relative viability: 1.14
Doramapimod + Foretinib; first compound 0.6325 µM
  relative viability: 1.34
Doramapimod + Foretinib; first compound 2 µM
  relative viability: 1.2
Doramapimod + Pemetrexed; first compound 0.02 µM
  relative viability: 0.69
Doramapimod + Pemetrexed; first compound 0.06325 µM
  relative viability: 0.667
Doramapimod + Pemetrexed; first compound 0.2 µM
  relative viability: 0.605
Doramapimod + Pemetrexed; first compound 0.6325 µM
  relative viability: 0.667
Doramapimod + Pemetrexed; first compound 2 µM
  relative viability: 0.642
RAF265 + Dasatinib; first compound 0.01 µM
  relative viability: 0.716
RAF265 + Dasatinib; first compound 0.03162 µM
  relative viability: 0.656
RAF265 + Dasatinib; first compound 0.1 µM
  relative viability: 0.622
RAF265 + Dasatinib; first compound 0.3162 µM
  relative viability: 0.464
RAF265 + Dasatinib; first compound 1 µM
  relative viability: 0.354
RAF265 + Pemetrexed; first compound 0.01 µM
  relative viability: 0.703
RAF265 + Pemetrexed; first compound 0.03162 µM
  relative viability: 0.669
RAF265 + Pemetrexed; first compound 0.1 µM
  relative viability: 0.65
RAF265 + Pemetrexed; first compound 0.3162 µM
  relative viability: 0.605
RAF265 + Pemetrexed; first compound 1 µM
  relative viability: 0.554

## NCI-H2170
Doramapimod + Foretinib; first compound 0.02 µM
  relative viability: 0.996
Doramapimod + Foretinib; first compound 0.06325 µM
  relative viability: 0.985
Doramapimod + Foretinib; first compound 0.2 µM
  relative viability: 1
Doramapimod + Foretinib; first compound 0.6325 µM
  relative viability: 1.05
Doramapimod + Foretinib; first compound 2 µM
  relative viability: 1.01
Doramapimod + Pemetrexed; first compound 0.02 µM
  relative viability: 0.278
Doramapimod + Pemetrexed; first compound 0.06325 µM
  relative viability: 0.261
Doramapimod + Pemetrexed; first compound 0.2 µM
  relative viability: 0.256
Doramapimod + Pemetrexed; first compound 0.6325 µM
  relative viability: 0.28
Doramapimod + Pemetrexed; first compound 2 µM
  relative viability: 0.259
RAF265 + Dasatinib; first compound 0.01 µM
  relative viability: 0.663
RAF265 + Dasatinib; first compound 0.03162 µM
  relative viability: 0.474
RAF265 + Dasatinib; first compound 0.1 µM
  relative viability: 0.539
RAF265 + Dasatinib; first compound 0.3162 µM
  relative viability: 0.241
RAF265 + Dasatinib; first compound 1 µM
  relative viability: 0.432
RAF265 + Pemetrexed; first compound 0.01 µM
  relative viability: 0.245
RAF265 + Pemetrexed; first compound 0.03162 µM
  relative viability: 0.258
RAF265 + Pemetrexed; first compound 0.1 µM
  relative viability: 0.263
RAF265 + Pemetrexed; first compound 0.3162 µM
  relative viability: 0.261
RAF265 + Pemetrexed; first compound 1 µM
  relative viability: 0.251

## NCI-H2228
Doramapimod + Foretinib; first compound 0.02 µM
  relative viability: 0.723
Doramapimod + Foretinib; first compound 0.06325 µM
  relative viability: 0.87
Doramapimod + Foretinib; first compound 0.2 µM
  relative viability: 0.825
Doramapimod + Foretinib; first compound 0.6325 µM
  relative viability: 0.764
Doramapimod + Foretinib; first compound 2 µM
  relative viability: 0.723
Doramapimod + Pemetrexed; first compound 0.02 µM
  relative viability: 0.339
Doramapimod + Pemetrexed; first compound 0.06325 µM
  relative viability: 0.354
Doramapimod + Pemetrexed; first compound 0.2 µM
  relative viability: 0.322
Doramapimod + Pemetrexed; first compound 0.6325 µM
  relative viability: 0.393
Doramapimod + Pemetrexed; first compound 2 µM
  relative viability: 0.308
RAF265 + Dasatinib; first compound 0.01 µM
  relative viability: 0.484
RAF265 + Dasatinib; first compound 0.03162 µM
  relative viability: 0.535
RAF265 + Dasatinib; first compound 0.1 µM
  relative viability: 0.397
RAF265 + Dasatinib; first compound 0.3162 µM
  relative viability: 0.179
RAF265 + Dasatinib; first compound 1 µM
  relative viability: 0.139
RAF265 + Pemetrexed; first compound 0.01 µM
  relative viability: 0.325
RAF265 + Pemetrexed; first compound 0.03162 µM
  relative viability: 0.353
RAF265 + Pemetrexed; first compound 0.1 µM
  relative viability: 0.303
RAF265 + Pemetrexed; first compound 0.3162 µM
  relative viability: 0.297
RAF265 + Pemetrexed; first compound 1 µM
  relative viability: 0.268

## NCI-H2342
Doramapimod + Foretinib; first compound 0.02 µM
  relative viability: 0.91
Doramapimod + Foretinib; first compound 0.06325 µM
  relative viability: 1.03
Doramapimod + Foretinib; first compound 0.2 µM
  relative viability: 0.975
Doramapimod + Foretinib; first compound 0.6325 µM
  relative viability: 1.29
Doramapimod + Foretinib; first compound 2 µM
  relative viability: 1.13
Doramapimod + Pemetrexed; first compound 0.02 µM
  relative viability: 0.733
Doramapimod + Pemetrexed; first compound 0.06325 µM
  relative viability: 0.759
Doramapimod + Pemetrexed; first compound 0.2 µM
  relative viability: 0.789
Doramapimod + Pemetrexed; first compound 0.6325 µM
  relative viability: 0.788
Doramapimod + Pemetrexed; first compound 2 µM
  relative viability: 0.784
RAF265 + Dasatinib; first compound 0.01 µM
  relative viability: 0.319
RAF265 + Dasatinib; first compound 0.03162 µM
  relative viability: 0.349
RAF265 + Dasatinib; first compound 0.1 µM
  relative viability: 0.298
RAF265 + Dasatinib; first compound 0.3162 µM
  relative viability: 0.276
RAF265 + Dasatinib; first compound 1 µM
  relative viability: 0.288
RAF265 + Pemetrexed; first compound 0.01 µM
  relative viability: 0.809
RAF265 + Pemetrexed; first compound 0.03162 µM
  relative viability: 0.818
RAF265 + Pemetrexed; first compound 0.1 µM
  relative viability: 0.782
RAF265 + Pemetrexed; first compound 0.3162 µM
  relative viability: 0.803
RAF265 + Pemetrexed; first compound 1 µM
  relative viability: 0.788

## NCI-H2347
Doramapimod + Foretinib; first compound 0.06325 µM
  relative viability: 1.03
Doramapimod + Foretinib; first compound 0.2 µM
  relative viability: 1.1
Doramapimod + Foretinib; first compound 0.6325 µM
  relative viability: 0.861
Doramapimod + Foretinib; first compound 2 µM
  relative viability: 1.11
Doramapimod + Pemetrexed; first compound 0.02 µM
  relative viability: 0.42
Doramapimod + Pemetrexed; first compound 0.06325 µM
  relative viability: 0.443
Doramapimod + Pemetrexed; first compound 0.2 µM
  relative viability: 0.444
Doramapimod + Pemetrexed; first compound 0.6325 µM
  relative viability: 0.436
Doramapimod + Pemetrexed; first compound 2 µM
  relative viability: 0.376
RAF265 + Dasatinib; first compound 0.01 µM
  relative viability: 0.358
RAF265 + Dasatinib; first compound 0.03162 µM
  relative viability: 0.331
RAF265 + Dasatinib; first compound 0.1 µM
  relative viability: 0.341
RAF265 + Dasatinib; first compound 0.3162 µM
  relative viability: 0.213
RAF265 + Dasatinib; first compound 1 µM
  relative viability: 0.237
RAF265 + Pemetrexed; first compound 0.01 µM
  relative viability: 0.392
RAF265 + Pemetrexed; first compound 0.03162 µM
  relative viability: 0.371
RAF265 + Pemetrexed; first compound 0.1 µM
  relative viability: 0.406
RAF265 + Pemetrexed; first compound 0.3162 µM
  relative viability: 0.446
RAF265 + Pemetrexed; first compound 1 µM
  relative viability: 0.351

## NCI-H2405
Doramapimod + Foretinib; first compound 0.02 µM
  relative viability: 1.11
Doramapimod + Foretinib; first compound 0.06325 µM
  relative viability: 1.01
Doramapimod + Foretinib; first compound 0.2 µM
  relative viability: 1.04
Doramapimod + Foretinib; first compound 0.6325 µM
  relative viability: 1.14
Doramapimod + Foretinib; first compound 2 µM
  relative viability: 0.998
Doramapimod + Pemetrexed; first compound 0.02 µM
  relative viability: 1.13
Doramapimod + Pemetrexed; first compound 0.06325 µM
  relative viability: 1.13
Doramapimod + Pemetrexed; first compound 0.2 µM
  relative viability: 1.02
Doramapimod + Pemetrexed; first compound 0.6325 µM
  relative viability: 1.18
Doramapimod + Pemetrexed; first compound 2 µM
  relative viability: 1.01
RAF265 + Dasatinib; first compound 0.01 µM
  relative viability: 0.242
RAF265 + Dasatinib; first compound 0.03162 µM
  relative viability: 0.194
RAF265 + Dasatinib; first compound 0.1 µM
  relative viability: 0.191
RAF265 + Dasatinib; first compound 0.3162 µM
  relative viability: 0.159
RAF265 + Dasatinib; first compound 1 µM
  relative viability: 0.193
RAF265 + Pemetrexed; first compound 0.01 µM
  relative viability: 1.14
RAF265 + Pemetrexed; first compound 0.03162 µM
  relative viability: 0.922
RAF265 + Pemetrexed; first compound 0.1 µM
  relative viability: 0.91
RAF265 + Pemetrexed; first compound 0.3162 µM
  relative viability: 0.662
RAF265 + Pemetrexed; first compound 1 µM
  relative viability: 0.516
